Measured values from PubChem BioAssay (NCI).
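Cells were grown in 96-well plates and exposed to each compound for 48 hours at five concentrations; endpoints were interpolated linearly between bracketing concentrations, or set to the highest concentration if not reached. GI50 is the concentration that inhibits growth by half. TGI: concentration producing complete growth inhibition.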

Tests used:
Assay in all cases: NCI anticancer screen, dose series, 48 h
A498 renal = system: A498 renal
CAKI-1 renal = system: CAKI-1 renal
HCT-15 colon = system: HCT-15 colon
KM12 colon = system: KM12 colon
MOLT-4 leukemia = system: MOLT-4 leukemia
NCI-H23 lung = system: NCI-H23 lung
OVCAR-4 ovarian = system: OVCAR-4 ovarian
SNB-75 CNS = system: SNB-75 CNS
UACC-257 melanoma = system: UACC-257 melanoma
UO-31 renal = system: UO-31 renal

| Structure (SMILES) | TGI (A498 renal) | TGI (CAKI-1 renal) | TGI (HCT-15 colon) | TGI (KM12 colon) | TGI (MOLT-4 leukemia) | TGI (NCI-H23 lung) | TGI (OVCAR-4 ovarian) | TGI (SNB-75 CNS) | TGI (UACC-257 melanoma) | TGI (UO-31 renal) | GI50 (A498 renal) | GI50 (CAKI-1 renal) | GI50 (HCT-15 colon) | GI50 (KM12 colon) | GI50 (MOLT-4 leukemia) | GI50 (NCI-H23 lung) | GI50 (OVCAR-4 ovarian) | GI50 (SNB-75 CNS) | GI50 (UACC-257 melanoma) | GI50 (UO-31 renal) |
| --- | --- | --- | --- | --- | --- | --- | --- | --- | --- | --- | --- | --- | --- | --- | --- | --- | --- | --- | --- | --- |
| CC1NC(=O)C(C)C(c2ccccc2)N(N=O)C1c1ccccc1 (stereo not given) | > 100 µM | > 100 µM | > 100 µM | > 100 µM | > 100 µM | > 100 µM | 97.1 µM | > 79.3 µM | > 100 µM | > 100 µM | – | – | – | – | – | – | – | – | – | – |
| O=C(CC1Sc2ccccc2NC1=O)Nc1ccccc1[N+](=O)[O-] (stereo not given) | > 100 µM | > 100 µM | > 100 µM | > 100 µM | > 100 µM | > 100 µM | > 100 µM | > 100 µM | > 100 µM | > 100 µM | – | – | – | – | – | – | – | – | – | – |
| CO[C@](C(=O)OC[C@H]1[C@@H](COC(C)=O)[C@@H]2O[C@H]1c1cc3c(cc12)OCO3)(c1ccccc1)C(F)(F)F | > 100 µM | > 100 µM | > 100 µM | > 100 µM | > 100 µM | > 100 µM | > 100 µM | 71.5 µM | > 100 µM | 55.4 µM | – | – | – | – | – | – | – | – | – | – |
| CCOC(=O)c1csc(NC(=O)CN2CCCC2)n1 | > 100 µM | > 100 µM | > 100 µM | > 100 µM | > 100 µM | > 100 µM | > 100 µM | > 100 µM | > 100 µM | > 100 µM | – | – | – | – | – | – | – | – | – | – |
| CCCCCCOc1ccc(/C=N/Nc2cc(C)nc3ccc(Cl)cc23)cc1 | 3.4 µM | 3.06 µM | 2.55 µM | 3.38 µM | 4.05 µM | 3.54 µM | 3.18 µM | 3.43 µM | 3.26 µM | 2.88 µM | 1.77 µM | 1.65 µM | 1.27 µM | 1.67 µM | 1.85 µM | 1.88 µM | 1.75 µM | 1.81 µM | 1.61 µM | 1.5 µM |
| Cc1ccc(C(=O)OC(C(=O)O)C(OC(=O)c2ccc(C)cc2)C(=O)O)cc1 (stereo not given) (tested in a mixture with another compound) | 24.5 µM | 21.2 µM | 17.6 µM | 19 µM | 14.3 µM | 12.8 µM | 21.6 µM | 14.8 µM | 13.7 µM | 14.5 µM | – | – | – | – | – | – | – | – | – | – |
